# Laboratory results reported in article PMC7955127, “Preclinical small molecule WEHI-7326 overcomes drug resistance and elicits response in patient-derived xenograft models of human treatment-refractory tumors” (Cell Death & Disease, 2021).
# What was measured:
# [1] = system: 134197 HGSOC PDX; assay: HGSOC PDX model 134197; type: in vivo, NSG mice; details: 134197 cisplatin-resistant PDX; 20 mg/kg i.v. biweekly, 6 weeks
# Method: (§1) Two to three mm ovarian tumor fragments were subcutaneously engrafted in the left flank of NSG mice and monitored by physical palpation for tumor growth and engraftment. Engrafted tumors were measured twice a week using digital Vernier calipers and maximum tumor diameter + perpendicular tumor length were digitally recorded into the Study Director software (v 3.0/4.0 StudyLog). Tumor volume was calculated automatically (tumor volume (mm^3) = 0.5236 x [larger diameter (mm) x smaller diameter (mm)^2]). Mice were randomized to treatment once their tumor volume reach 180–300 mm^3 and tumor measurements were performed twice a week up to 120 days or when the tumor volume reaches 700 mm^3.
# (§2) Time to progressive disease (PD): Defined as the time (in days) from beginning of treatment to an increase in average tumor volume of >20% from the nadir (taken as the smallest average tumor volume recorded since treatment started or 200 mm^3 if nadir was <200 mm^3 as lesions smaller than this are difficult to measure with accuracy). Median time to harvest (TTH): Defined as the time (in days) from the beginning of treatment to day of harvest at 700 mm^3 and the median TTH was calculated and plotted using Kaplan-Meier curves. Based on ref. [27]. […]
# [2] = system: LIM2537 (colon carcinoma) xenograft; assay: LIM2537 tumor xenograft in nude mice; type: in vivo, BALB/c nude mice; details: i.p. three times weekly
# Method: (§3) Tumor cell lines LIM2537, U87MGΔ2–7EGFR or H1437 were collected by trypsinization, counted and injected at 5 × 10^6 cells/ site subcutaneously on both flanks of BALB/c nude mice. Treatment with vehicle control or WEHI-7326 at given dose was initiated after 5 days. Drug or vehicle (100 μl) was injected intraperitoneally three times weekly. Control group and treatment group consisted of 8 mice each. Tumors were measured twice weekly with calipers. Tumor volumes were estimated using the modified ellipsoid formula V = 1/2 (length × width^2). The experiments were terminated when tumors in the control group started ulcerating or exceeded 17 mm in length, in line with the LICR/DoS Animal Ethics Committee guidelines (11/05 A).
# [3] = system: U87MG-(Δ2–7) (glioblastoma) xenograft; assay: U87MG-(Δ2–7) tumor xenograft in nude mice; type: in vivo, BALB/c nude mice; details: U87MG-(Δ2–7) xenograft, i.p. three times weekly
# Method: as §3
# [4] = system: spontaneous neuroblastoma in Th-MYCN transgenic mice; assay: Th-MYCN transgenic mouse model of neuroblastoma; type: in vivo; details: WEHI-7326 20 mg/kg i.v. twice weekly, standard-of-care combinations daily i.p. for 5 days
# Method: All animal studies were performed in accordance with the guidelines approved by University of New South Wales Animal Care and Ethics Committee (ACEC 17/53B) and in accordance with the requirements of the Australian Code for the Care and Use of Animals for Scientific Purposes. PDX models COG-N-440x and COG-N-496x were obtained from the Childhood Cancer Repository, Texas Tech University Health Sciences Center in Lubbock, TX, USA. 6–8 week old female NSG mice were engrafted by subcutaneous injection with 1 × 10^6 freshly thawed PDX tumor cells into one flank in a mixture of 100 μl RPMI-1640 and 100 μl Matrigel. Mice were monitored for tumor development three times weekly and tumor size measured using digital Vernier calipers. Treatments commenced when tumors reached 50 mm^3, following randomization into treatment arms. […] Mice were treated with either vincristine (0.5 mg/kg, once weekly i.p. in sterile saline for up to 5 weeks), WEHI-7326 (20 mg/kg; twice weekly i.v. in sterile saline for up to 5 weeks) or vehicle (as for WEHI-7326). For the Th-MYCN transgenic mouse model, spontaneous tumor growth in mice homozygous for the MYCN transgene was assessed by abdominal palpation at least twice a week. Treatments commenced once a small palpable tumor (~5 mm) was detected, following randomization to treatment arms. Mice were euthanized upon detection of an abdominal tumor of ~1 cm in diameter. […]
# [5] = system: tubulin in SW480 cells; assay: Tubulin polymerization in cells (polymerized vs soluble, western blot); type: cell-based, human; details: 100 nM, overnight, vs control cells
# Method: Cells incubated with control or with inhibitors were lysed in hypotonic buffer (1 mM MgCl2/2 mM EGTA/0.5% Nonidet P-40/20 mM Tris·HCl, pH 6.8 with the addition of complete protease inhibitor cocktail). The lysates were centrifuged at 14,000 rpm for 10 min at RT. Supernatants (containing soluble tubulin) and pellets (containing polymerized tubulin) were separated and each sample was brought to an equal volume with hypotonic buffer. Proteins were resolved by SDS/PAGE on 4–12% gels (Invitrogen, Carlsbad, CA), transferred to nitrocellulose and immunoblotted with an antibody against tubulin followed by fluorescent secondary antibody. Immunoreactive bands were detected using an Odyssey photometer (Li-Cor, Lincoln, NB).
# [6] = system: MDA-MB-231; assay: Cell growth inhibition assay, MDA-MB-231; type: cell-based; details: Homo sapiens; MDA-MB-231, breast carcinoma; 72 h viability assay, CellTiterGlo; mean of 3 ± SEM; read-out: IC50 (inhibition of cellular proliferation)
# Method: Cells were plated at a density of between 500 to 5000 cells per well for adherent cell lines depending on doubling time, and 15,000 cells per well for lymphoblastic leukemia cell lines, in a 96-well plate in 200 μl of growth media. Plates were incubated overnight at 37 °C before adding the inhibitors. Inhibitors were serially diluted from the stock solutions in complete medium and added to the cells. Incubation in the presence of inhibitors was continued for […]. Cell viability was assessed by the AlamarBlue (Invitrogen) or CellTiterBlue/Glo (Promega) method according to manufacturer’s instructions. The curve fits and IC50 values were generated in PRISM (GraphPad, San Diego, CA).
# [7] = system: 134111 HGSOC PDX; assay: HGSOC post-chemo PDX model 134111; type: in vivo, NSG mice; details: 134111 post-taxane, cisplatin-refractory PDX; 20 mg/kg i.v. twice a week, 6 weeks
# Method: as §1, §2
compound,measurement,setting,value
COc1ccc(CNc2nc(NCc3ccc(CN)cc3)nc(NN3CC(=O)NC3=O)n2)cc1 [WEHI-7326],Median time to harvest (TTH),[1],92 days
same,Time to progressive disease (PD),[1],35 days
same,Tumor growth,[2],effective in reducing tumor growth
same,Tumor growth,[3],effective in reducing tumor growth
same,Median survival,[4],44 days
same,Change in ratio of polymerized to soluble tubulin,[5],no significant change
same,IC50,[6],24.4 ± 3.1 nM
same,Tumor response,[7],ineffective
